Laboratory results: ChEMBL document CHEMBL5321237 (Eur J Med Chem, 2023)

Columns and labels:
[1] = target: Platelet-derived growth factor receptor alpha (Homo sapiens) (UniProt P16234); assay: Inhibition of human PDGFRalpha binding to streptavidin-coated magnetic beads immobilized biotinylated ligand at 500 nM incubated for 1 hr by qPCR analysis relative to control
[2] = target: T1, Ephrin type-B receptor 6 (Homo sapiens) (UniProt O15197); assay: Competitive binding affinity to human EPHB6 at 500 nM incubated for 1 hr by qPCR analysis relative to control
T1 sequence (whole entry): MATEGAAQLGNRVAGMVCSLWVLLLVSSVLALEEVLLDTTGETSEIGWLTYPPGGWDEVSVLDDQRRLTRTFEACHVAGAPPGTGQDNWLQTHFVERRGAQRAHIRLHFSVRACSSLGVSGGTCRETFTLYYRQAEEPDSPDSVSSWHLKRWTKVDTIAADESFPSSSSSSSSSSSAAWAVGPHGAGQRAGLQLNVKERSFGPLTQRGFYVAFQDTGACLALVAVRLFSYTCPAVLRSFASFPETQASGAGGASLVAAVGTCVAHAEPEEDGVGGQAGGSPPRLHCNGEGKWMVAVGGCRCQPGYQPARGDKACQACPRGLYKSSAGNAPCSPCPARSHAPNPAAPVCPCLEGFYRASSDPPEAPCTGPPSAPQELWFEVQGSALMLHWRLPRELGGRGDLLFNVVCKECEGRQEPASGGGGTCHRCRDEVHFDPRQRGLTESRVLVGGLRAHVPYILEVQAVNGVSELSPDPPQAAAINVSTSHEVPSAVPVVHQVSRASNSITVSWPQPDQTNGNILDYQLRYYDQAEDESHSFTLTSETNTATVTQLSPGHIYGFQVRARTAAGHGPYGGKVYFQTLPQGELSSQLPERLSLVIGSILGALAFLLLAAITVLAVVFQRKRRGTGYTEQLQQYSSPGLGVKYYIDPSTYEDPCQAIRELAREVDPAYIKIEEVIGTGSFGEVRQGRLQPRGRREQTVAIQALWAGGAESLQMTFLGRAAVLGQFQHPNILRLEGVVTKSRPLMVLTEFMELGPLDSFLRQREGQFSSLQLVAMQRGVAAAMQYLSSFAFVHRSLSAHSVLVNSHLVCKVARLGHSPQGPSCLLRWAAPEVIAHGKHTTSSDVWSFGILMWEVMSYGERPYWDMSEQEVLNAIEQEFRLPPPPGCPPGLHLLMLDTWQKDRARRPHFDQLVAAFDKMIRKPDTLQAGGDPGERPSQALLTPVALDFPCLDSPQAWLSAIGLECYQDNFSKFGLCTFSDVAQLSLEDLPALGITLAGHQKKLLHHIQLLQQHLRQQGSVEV

[3] = target: Macrophage colony-stimulating factor 1 receptor (Homo sapiens, UniProt P07333); assay: Binding affinity to non-autoinhibited form of CSF1R (unknown origin) assessed as dissociation constant incubated for 1 hr by qPCR based Hill equation analysis
Sequence of Macrophage colony-stimulating factor 1 receptor (P07333 whole entry): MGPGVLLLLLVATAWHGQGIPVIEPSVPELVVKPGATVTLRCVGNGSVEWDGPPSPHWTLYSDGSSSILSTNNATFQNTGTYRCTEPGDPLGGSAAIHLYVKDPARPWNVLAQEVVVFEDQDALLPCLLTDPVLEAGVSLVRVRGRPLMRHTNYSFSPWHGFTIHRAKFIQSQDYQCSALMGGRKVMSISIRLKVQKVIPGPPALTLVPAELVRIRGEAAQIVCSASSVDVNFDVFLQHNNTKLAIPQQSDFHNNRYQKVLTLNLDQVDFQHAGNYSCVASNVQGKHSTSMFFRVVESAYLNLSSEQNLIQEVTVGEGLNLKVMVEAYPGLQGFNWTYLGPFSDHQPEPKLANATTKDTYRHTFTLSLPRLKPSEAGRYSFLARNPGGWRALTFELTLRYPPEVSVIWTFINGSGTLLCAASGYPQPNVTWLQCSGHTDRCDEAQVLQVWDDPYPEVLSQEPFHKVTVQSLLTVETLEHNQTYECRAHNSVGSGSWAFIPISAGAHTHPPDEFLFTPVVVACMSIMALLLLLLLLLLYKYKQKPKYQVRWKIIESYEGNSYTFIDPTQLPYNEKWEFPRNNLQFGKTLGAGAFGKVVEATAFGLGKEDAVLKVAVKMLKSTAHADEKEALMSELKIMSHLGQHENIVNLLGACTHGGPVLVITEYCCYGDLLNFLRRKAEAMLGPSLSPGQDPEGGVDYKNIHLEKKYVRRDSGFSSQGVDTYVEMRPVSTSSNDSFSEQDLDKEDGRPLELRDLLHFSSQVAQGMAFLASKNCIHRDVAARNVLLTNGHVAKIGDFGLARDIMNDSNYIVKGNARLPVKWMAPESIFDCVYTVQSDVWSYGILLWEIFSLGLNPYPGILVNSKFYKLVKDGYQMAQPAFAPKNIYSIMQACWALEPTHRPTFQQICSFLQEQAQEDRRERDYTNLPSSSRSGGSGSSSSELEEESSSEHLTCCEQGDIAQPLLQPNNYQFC

Sequence of Platelet-derived growth factor receptor alpha (Homo sapiens) (P16234 whole entry): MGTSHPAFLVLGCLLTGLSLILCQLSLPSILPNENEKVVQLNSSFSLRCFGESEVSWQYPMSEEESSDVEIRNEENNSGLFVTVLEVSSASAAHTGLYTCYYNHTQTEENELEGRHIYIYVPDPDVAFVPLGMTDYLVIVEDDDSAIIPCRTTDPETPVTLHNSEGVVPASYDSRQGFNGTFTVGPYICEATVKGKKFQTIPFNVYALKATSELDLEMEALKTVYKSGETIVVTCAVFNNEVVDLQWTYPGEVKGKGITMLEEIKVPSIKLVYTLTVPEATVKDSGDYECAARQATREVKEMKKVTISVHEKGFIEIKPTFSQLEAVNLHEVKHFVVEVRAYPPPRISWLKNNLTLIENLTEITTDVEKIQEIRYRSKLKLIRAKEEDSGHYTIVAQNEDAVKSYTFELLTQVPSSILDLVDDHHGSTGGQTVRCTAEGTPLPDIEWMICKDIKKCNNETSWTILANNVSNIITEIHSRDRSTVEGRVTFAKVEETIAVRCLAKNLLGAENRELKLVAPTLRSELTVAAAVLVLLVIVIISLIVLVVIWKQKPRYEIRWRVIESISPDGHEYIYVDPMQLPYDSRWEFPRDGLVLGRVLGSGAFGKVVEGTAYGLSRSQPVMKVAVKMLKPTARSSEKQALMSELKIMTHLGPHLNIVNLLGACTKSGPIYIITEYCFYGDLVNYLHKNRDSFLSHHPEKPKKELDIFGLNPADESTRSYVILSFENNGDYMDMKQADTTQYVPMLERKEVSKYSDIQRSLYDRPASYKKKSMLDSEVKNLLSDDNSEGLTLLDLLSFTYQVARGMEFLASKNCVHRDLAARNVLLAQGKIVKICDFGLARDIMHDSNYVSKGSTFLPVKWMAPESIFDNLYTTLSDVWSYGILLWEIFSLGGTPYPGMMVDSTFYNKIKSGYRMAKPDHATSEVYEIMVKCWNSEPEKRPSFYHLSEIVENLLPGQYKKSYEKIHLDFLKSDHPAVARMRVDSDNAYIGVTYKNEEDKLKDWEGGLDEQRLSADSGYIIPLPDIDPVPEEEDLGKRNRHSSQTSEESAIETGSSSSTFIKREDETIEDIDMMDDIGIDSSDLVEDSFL

inhibition [1]: 12%
Activity [2]: 87%
Kd [3]: 220 nM
SMILES: CN(CC1CCCC1)c1ncnc2[nH]c(-c3ccc(CO)cc3)nc12
